Laboratory results from ChEMBL document CHEMBL6092192 (J Med Chem, 2024).

Key:
[1] = tested on: SW620/AD300; test: Reversal of paclitaxel resistance in human SW620/AD300 cells assessed as reversal fold by measuring ratio of paclitaxel IC50 to paclitaxel IC50 in presence of test compound incubated for 72 hrs by MTT assay; assay type: functional
[2] = tested on: SW620/AD300; test: Cytotoxicity against multidrug resistant human SW620/AD300 cells assessed as survival rate at 4 uM measured after 72 hrs by MTT assay relative to control; assay type: functional; settings: read-out: Survival
[3] = tested on: SW-620; test: Cytotoxicity against human SW620 cells measured after 72 hrs by MTT assay; assay type: functional, cell-based; settings: SW-620, 72 h
[4] = tested on: SW-620; test: Reversal of paclitaxel resistance in human SW620 cells assessed as reversal fold by measuring ratio of paclitaxel IC50 to paclitaxel IC50 in presence of test compound at 4 uM incubated for 72 hrs by MTT assay; assay type: functional
[5] = tested on: SW620/AD300; test: Cytotoxicity against multidrug resistant human SW620/AD300 cells measured after 72 hrs by MTT assay; assay type: functional, cell-based; settings: SW620/AD300, 72 h
[6] = tested on: KB-C2; test: Cytotoxicity against human KB-C2 cells measured after 72 hrs by MTT assay; assay type: functional, cell-based; settings: KB-C2, 72 h
[7] = tested on: KB 3-1; test: Cytotoxicity against human KB 3-1 cells measured after 72 hrs by MTT assay; assay type: functional, cell-based; settings: KB 3-1, 72 h
[8] = tested on: HEK293; test: Cytotoxicity against HEK293 cells transfected with pcDNA3.1 measured after 72 hrs by MTT assay; assay type: functional, cell-based; settings: Homo sapiens, HEK293, 72 h
[9] = tested on: HEK293; test: Cytotoxicity against HEK293 cells harbouring ABCB1 measured after 72 hrs by MTT assay; assay type: functional, cell-based; settings: Homo sapiens, HEK293, 72 h

Cc1cc(=O)n2nc(SCc3nc4ccccc4[nH]3)nc2[nH]1
Ratio IC50 [1]: 44.54
viability at 4 µM [2]: 96.8%

Cc1cc(=O)n2nc(SCc3ccc(Cl)c(F)c3)nc2[nH]1
Ratio IC50 [1]: 18
viability at 4 µM [2]: 97.6%

O=c1c2c([nH]c3nc(SCc4csc5ccc(Cl)cc45)nn13)CCC2
Ratio IC50 [1]: 56.1
viability at 4 µM [2]: 98.8%

O=c1c2c([nH]c3ncnn13)CCCCC2
Ratio IC50 [1]: 3.57
viability at 4 µM [2]: 95.3%

C#CCSc1nc2[nH]c3c(c(=O)n2n1)CCC3
Ratio IC50 [1]: 24
viability at 4 µM [2]: 96.9%

Cc1cc(=O)n2nc(SCc3ccc(C(F)(F)F)cc3)nc2[nH]1
Ratio IC50 [1]: 4.08
viability at 4 µM [2]: 97.6%

Cc1cc(=O)n2c(C#N)c(C#N)nc2[nH]1
Ratio IC50 [1]: 1.38
viability at 4 µM [2]: 97.5%

Cc1cc(=O)n2nc(SCc3cc(=O)oc4c3ccc3ccccc34)nc2[nH]1
Ratio IC50 [1]: 57.6
viability at 4 µM [2]: 97.1%

O=c1c2c([nH]c3nc(SCc4ccccc4)nn13)CCC2
Ratio IC50 [1]: 25.41
viability at 4 µM [2]: 94.7%

Cc1cc(=O)n2nccc2[nH]1
Ratio IC50 [1]: 2.81
viability at 4 µM [2]: 93.9%

O=c1cc(C2CC2)[nH]c2ncnn12
Ratio IC50 [1]: 1.36
viability at 4 µM [2]: 92.5%

C#CCSc1nc2[nH]c(C)cc(=O)n2n1
Ratio IC50 [1]: 4.6
viability at 4 µM [2]: 97.2%

Cc1cc(=O)n2nc(SCC3CCCCC3)nc2[nH]1
Ratio IC50 [1]: 6
viability at 4 µM [2]: 92.6%

COc1ccc(CSc2nc3[nH]c(C)cc(=O)n3n2)cc1
Ratio IC50 [1]: 33.49
viability at 4 µM [2]: 93.6%

Cc1cc(=O)n2c(nc3ccccc32)[nH]1
Ratio IC50 [1]: 1.09
viability at 4 µM [2]: 96.2%

O=c1c2c([nH]c3nc(SCc4nc5ccccc5[nH]4)nn13)CCC2
Ratio IC50 [1]: 69.68
viability at 4 µM [2]: 94.7%

O=c1cc(-c2ccccc2)[nH]c2ncnn12
Ratio IC50 [1]: 1.03
viability at 4 µM [2]: 99%

Cc1cc(=O)n2nc(SCc3csc4ccc(Cl)cc34)nc2[nH]1
Ratio IC50 [1]: 18
viability at 4 µM [2]: 94.6%

Cc1cc(=O)n2nc(SCc3ccc([N+](=O)[O-])cc3)nc2[nH]1
Ratio IC50 [1]: 7.08
viability at 4 µM [2]: 93.2%

Cc1cc(=O)n2nc(SCc3ccc(Cl)cc3)nc2[nH]1
Ratio IC50 [1]: 13.94
viability at 4 µM [2]: 94.5%

O=c1cc(C(F)F)[nH]c2ncnn12
Ratio IC50 [1]: 1.06
viability at 4 µM [2]: 92.4%

Cc1cc(=O)n2nc(SCc3ccc(Br)cc3)nc2[nH]1
Ratio IC50 [1]: 10.29
viability at 4 µM [2]: 94.9%

CCCCCc1c(C)[nH]c2ncnn2c1=O
Ratio IC50 [1]: 1
viability at 4 µM [2]: 98.6%

CCOC(=O)CCc1c(C)[nH]c2ncnn2c1=O
Ratio IC50 [1]: 1.03
viability at 4 µM [2]: 94.2%

Cc1[nH]c2ncnn2c(=O)c1C
Ratio IC50 [1]: 4.36
viability at 4 µM [2]: 93.8%

Cc1cc(=O)n2ncnc2[nH]1
Ratio IC50 [1]: 5.4
viability at 4 µM [2]: 97.6%

Cc1cc(=O)n2nc(SCc3nc4ccccc4s3)nc2[nH]1
Ratio IC50 [1]: 60.85
viability at 4 µM [2]: 97.2%

COC(=O)c1nc2[nH]c3c(c(=O)n2n1)CCC3
Ratio IC50 [1]: 20.57
viability at 4 µM [2]: 94.7%

CCc1cc(=O)n2ncnc2[nH]1
Ratio IC50 [1]: 1.83
viability at 4 µM [2]: 95.9%

CC(=O)O[C@H]1C(=O)[C@@]2(C)[C@H]([C@H](OC(=O)c3ccccc3)[C@]3(O)C[C@H](OC(=O)[C@H](O)[C@@H](NC(=O)c4ccccc4)c4ccccc4)C(C)=C1C3(C)C)[C@]1(OC(C)=O)CO[C@@H]1C[C@@H]2O [PACLITAXEL]
IC50 [3]: 6.55 nM
Ratio IC50 [4]: 1.03
IC50 [5]: 4320 nM
IC50 [6]: 2090 nM
IC50 [7]: 4.32 nM
IC50 [8]: 2.08 nM
IC50 [9]: 106 nM

COC(=O)c1nc2[nH]c(C)cc(=O)n2n1
Ratio IC50 [1]: 4.5
viability at 4 µM [2]: 97.9%

O=c1c2c([nH]c3ncnn13)COC2
Ratio IC50 [1]: 6.75
viability at 4 µM [2]: 98%

O=c1c2c([nH]c3ncnn13)CSC2
Ratio IC50 [1]: 8
viability at 4 µM [2]: 97.7%

Cc1cc(=O)n2nc(SCc3ccccc3)nc2[nH]1
Ratio IC50 [1]: 10.8
viability at 4 µM [2]: 95%

O=c1c2c([nH]c3ncnn13)CCCC2
Ratio IC50 [1]: 6.45
viability at 4 µM [2]: 94.7%

Cc1cc(=O)n2nc(SCc3ccc(F)cc3)nc2[nH]1
Ratio IC50 [1]: 14.9
viability at 4 µM [2]: 99.4%

O=c1c2c([nH]c3ncnn13)CCC2
Ratio IC50 [1]: 13.94
viability at 4 µM [2]: 96.2%

CC(C)c1cc(=O)n2ncnc2[nH]1
Ratio IC50 [1]: 1.39
viability at 4 µM [2]: 95.7%

Cc1cc(=O)n2nc(SCc3cccc4ccccc34)nc2[nH]1
Ratio IC50 [1]: 24.27
viability at 4 µM [2]: 97.8%
